Here are results for 25 molecules from patent US6432922B1 (Corvas International, Inc., priority 1998, dated 2002).

pIC50: −log10 of the molar value. Like-named read-outs stand apart in the source and are kept apart here. Non-standard residues stand in square brackets, D forms with d. Residues, ends and D or L forms follow the SMILES beside them. *: point of attachment. d(aThr) = C[C@@H](O)[C@@H](N)C(=O)O; cisHyp = O=C(O)[C@@H]1C[C@H](O)CN1; Hydrocinnamoyl = O=C(CCc1ccccc1)*; AllylGly = C=CC[C@H](N)C(=O)O; d(hSer) = N[C@H](CCO)C(=O)O; ΔPro = O=C(O)[C@@H]1C=CCN1; Isovaleryl = CC(C)CC(=O)*; Pra = C#CC[C@H](N)C(=O)O; dDap = NC[C@@H](N)C(=O)O; Aze = O=C(O)[C@@H]1CCN1; Cbz = O=C(OCc1ccccc1)* Where only a bound is given, the exact number is not on record here.

In one assay the target is T1, Human rt-PA (Activase) (Homo sapiens, UniProt P00750).
T1 construct: purchased Genentech Inc
T1 sequence (P00750 36-562): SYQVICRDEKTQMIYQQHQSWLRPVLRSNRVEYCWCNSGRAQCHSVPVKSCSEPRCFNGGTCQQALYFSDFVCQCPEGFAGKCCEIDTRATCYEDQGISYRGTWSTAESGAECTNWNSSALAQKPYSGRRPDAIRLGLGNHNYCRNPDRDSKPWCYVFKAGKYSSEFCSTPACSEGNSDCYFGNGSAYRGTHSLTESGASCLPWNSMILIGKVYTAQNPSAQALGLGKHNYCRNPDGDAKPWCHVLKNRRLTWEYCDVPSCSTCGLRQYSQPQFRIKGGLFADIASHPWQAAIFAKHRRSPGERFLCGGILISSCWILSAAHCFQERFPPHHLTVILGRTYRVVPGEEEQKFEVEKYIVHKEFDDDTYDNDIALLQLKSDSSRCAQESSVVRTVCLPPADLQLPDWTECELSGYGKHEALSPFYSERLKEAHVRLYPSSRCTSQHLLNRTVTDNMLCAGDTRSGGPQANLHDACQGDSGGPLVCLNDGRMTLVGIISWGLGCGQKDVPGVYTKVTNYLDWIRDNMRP
In words: Recombinant tissue plasminogen activator (rt-PA) chromogenic assay. The class given is biochemical. To be noted: 30 minute preincubation, HBSA buffer; read-out: tPA IC50. How it is done: rt-PA catalytic activity was determined using the substrate, Pefachrome t-PA (CH3SO2-D-hexahydrotyrosine-glycyl-L-arginine-p-nitroaniline, obtained from Pentap harm Ltd.). The substrate was made up in deionized water followed by dilution in HBSA prior to the assay in which the final concentration was 500 micromolar (about 3-times Km). Human rt-PA (Activase®) was obtained from Genentech Inc. The enzyme was reconstituted in deionized water and diluted into HBSA prior to the assay in which the final concentration was 1.0 nM.

The next assay deals with T2, human plasmin (Homo sapiens, UniProt P00747).
T2 construct: purchased Enzyme Research Laboratories, Inc
T2 sequence (P00747 581-810 limits assumed): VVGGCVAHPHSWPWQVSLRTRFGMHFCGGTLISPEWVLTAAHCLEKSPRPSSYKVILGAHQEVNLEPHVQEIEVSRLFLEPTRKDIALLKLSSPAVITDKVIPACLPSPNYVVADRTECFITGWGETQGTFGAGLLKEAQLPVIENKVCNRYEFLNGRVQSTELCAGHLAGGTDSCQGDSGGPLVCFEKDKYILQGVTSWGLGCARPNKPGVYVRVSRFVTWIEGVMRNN
T2 sequence (P00747 97-580 partner limits assumed): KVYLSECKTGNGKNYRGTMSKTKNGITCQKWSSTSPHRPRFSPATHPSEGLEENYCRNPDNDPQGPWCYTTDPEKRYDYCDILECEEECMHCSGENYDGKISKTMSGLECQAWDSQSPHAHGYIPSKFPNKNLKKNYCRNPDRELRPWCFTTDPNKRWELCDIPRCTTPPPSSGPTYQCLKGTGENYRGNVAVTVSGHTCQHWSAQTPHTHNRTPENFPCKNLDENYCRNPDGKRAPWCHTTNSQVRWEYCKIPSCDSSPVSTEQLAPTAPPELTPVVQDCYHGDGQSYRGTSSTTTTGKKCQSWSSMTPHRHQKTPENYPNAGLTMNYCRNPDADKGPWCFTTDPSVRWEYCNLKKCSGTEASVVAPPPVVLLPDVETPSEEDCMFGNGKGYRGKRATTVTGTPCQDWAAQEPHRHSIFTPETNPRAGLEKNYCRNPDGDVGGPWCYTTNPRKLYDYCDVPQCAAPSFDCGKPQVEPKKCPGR
In words: Plasmin chromogenic substrate (S-2366) assay. The assay is classed as biochemical. As to conditions: 30 minute preincubation, HBSA buffer. How it is done: The substrate was made up in deionized water followed by dilution in HBSA prior to the assay in which the final concentration was 300 micromolar (about 2.5-times Km). Purified human plasmin was obtained from Enzyme Research Laboratories, Inc. The enzyme was diluted into HBSA prior to assay in which the final concentration was 1.0 nM.

For the next assay, the target named is Urokinase (Abbokinase) (Homo sapiens, UniProt P00749). In words: Urokinase chromogenic substrate (S-2444) IC50 assay.
Where [1] appears, read: read-out: uPA IC50, 30 minute preincubation, HBSA buffer.

Procedure for Urokinase (Abbokinase): The buffer used for all assays was HBSA (10 mM HEPES, pH 7.5, 150 mM sodium chloride, 0.1% bovine serum albumin).
The initial velocity of chromogenic substrate hydrolysis was measured by the change in absorbance at 405 nm using a Thermo Max® Kinetic Microplate Reader over a 5 minute period in which less than 5% of the added substrate was utilized.
The assay buffer was HBS (10mM HEPES, 150mM sodium chloride pH 7.4) with 0.1% BSA.

Broadly, the pIC50 is the IC50 on a negative log10 scale, so that one unit is a factor of ten. As for `CC(C)CC(=O)N[C@H](CO)C(=O)N[C@@H](C)C(=O)N[C@H](C=O)CCCNC(=N)N` [Compound 39, isovaleryl-D-seryl-alanyl-argininal] (Isovaleryl-[dS]-Ala-Arg-aldehyde), the negative-log IC50 (pIC50) at Human rt-PA (Activase) was less than 5.60; against human plasmin, less than 5.60; on Urokinase (Abbokinase), 5.60 to 6.60.

For the molecule `N=C(N)NCCC[C@@H](C=O)NC(=O)[C@@H]1CCCN1C(=O)[C@@H](CO)NC(=O)OCc1ccccc1` [Compound 11, benzyloxycarbonyl-D-seryl-prolyl-argininal] (Cbz-[dS]-Pro-Arg-aldehyde), the negative logarithm of the IC50 (pIC50) on Human rt-PA (Activase) was less than 5.60; at human plasmin, 5.60 to 6.60; against Urokinase (Abbokinase) it was greater than 7.00.

For the molecule `C[C@H](NC(=O)[C@@H](CNC(=O)OCc1ccccc1)NC(=O)OCc1ccccc1)C(=O)N[C@H](C=O)CCCNC(=N)N` [Compound 42, N-α-N-β-dibenzyloxycarbonyl-D-2,3-diaminopropionyl-alanyl-argininal] (Cbz-[dDap](Cbz)-Ala-Arg-aldehyde), the pIC50 is less than 5.60 at Human rt-PA (Activase), 6.60 to 7.00 against human plasmin and 6.60 to 7.00 against Urokinase (Abbokinase).

Turning to `CC[C@@H](NC(=O)OCc1ccccc1)C(=O)N[C@@H](C)C(=O)NC(C=O)CCCNC(=N)N` (stereo partly drawn) [Compound 44], the pIC50 at Human rt-PA (Activase) was less than 5.60; against human plasmin, 5.60 to 6.60; against Urokinase (Abbokinase) it was 5.60 to 6.60.

For `C[C@H](NC(=O)[C@@H](CO)NS(=O)(=O)/C=C/c1ccccc1)C(=O)N[C@H](C=O)CCCNC(=N)N` [Compound 53, trans-β-Styrenesulfonyl-D-seryl-L-alanyl-argininal], the values for the negative logarithm of the IC50 (pIC50) at Human rt-PA (Activase), on human plasmin and on Urokinase (Abbokinase) were less than 5.60, 5.60 to 6.60 and greater than 7.00, respectively.

`C[C@H](NC(=O)[C@@H](CO)NS(=O)(=O)c1ccccc1)C(=O)N[C@H](C=O)CCCN=C(N)N` [Compound 28, Benzenesufonyl-D-Ser-L-Ala-L-Arg-al]: the negative logarithm of the IC50 (pIC50) at Human rt-PA (Activase) was less than 5.60; at human plasmin, 5.60 to 6.60; at Urokinase (Abbokinase) (setting [1]) it was greater than 7.00.

With `N=C(N)NCCC[C@@H](C=O)NC(=O)[C@@H]1CCN1C(=O)[C@@H](CO)NC(=O)OCc1ccccc1` [Compound 12, benzyloxycarbonyl-D-seryl-L-azetidine-2-carbonyl-argininal] (Cbz-[dS]-[Aze]-Arg-aldehyde), the pIC50 on Human rt-PA (Activase) was less than 5.60; at human plasmin, 5.60 to 6.60; at Urokinase (Abbokinase), greater than 7.00.

Regarding `C[C@H](NC(=O)[C@H](NC(=O)OCc1ccccc1)[C@@H](C)O)C(=O)N[C@H](C=O)CCCNC(=N)N` [Compound 19, benzyloxycarbonyl-D-allothreonyl-alanyl-argininal] (Cbz-[d(aThr)]-Ala-Arg-aldehyde), the pIC50 on Human rt-PA (Activase) is less than 5.60; at human plasmin it was 5.60 to 6.60; against Urokinase (Abbokinase), greater than 7.00.

For `CC(C)COC(=O)N[C@H](CO)C(=O)N[C@@H](C)C(=O)NC(CCCN=C(N)N)C(=O)C(=O)NCCc1ccccc1` (stereo partly drawn) [Compound 30, i-butoxycarbonyl-D-Ser-Ala-Arg-CO-phenethylamide], the results for the pIC50 at Human rt-PA (Activase), against human plasmin and on Urokinase (Abbokinase) (setting [1]) were less than 5.60, 5.60 to 6.60 and 6.60 to 7.00, respectively.

Turning to `C#CC[C@H](NC(=O)[C@@H](CO)NC(=O)OCc1ccccc1)C(=O)N[C@H](C=O)CCCNC(=N)N` [Compound 51, benzyloxycarbonyl-D-seryl-L-propargylglycyl-argininal] (Cbz-[dS]-[Pra]-Arg-aldehyde), the pIC50 was less than 5.60 at Human rt-PA (Activase), 5.60 to 6.60 on human plasmin and greater than 7.00 against Urokinase (Abbokinase).

For the molecule `C[C@H](NC(=O)[C@@H](CO)NS(=O)(=O)Cc1ccccc1)C(=O)N[C@H](C=O)CCCN=C(N)N` [Compound 29, Benzylsulfonyl-D-Ser-Ala-Arg-al], the negative-log IC50 (pIC50) was less than 5.60 at Human rt-PA (Activase), 5.60 to 6.60 at human plasmin and greater than 7.00 on Urokinase (Abbokinase) (setting [1]).

For the molecule `C[C@H](NC(=O)[C@@H](CNC(=O)CCc1ccccc1)NC(=O)OCc1ccccc1)C(=O)N[C@H](C=O)CCCNC(=N)N` [Compound 41, N-α-benzyloxycarbonyl-N-β-2-phenylethylcarbonyl-D-2,3-diaminopropionyl-alanyl-argininal] (Cbz-[dDap](Hydrocinnamoyl)-Ala-Arg-aldehyde), the results for the negative logarithm of the IC50 (pIC50) at Human rt-PA (Activase), against human plasmin and against Urokinase (Abbokinase) were less than 5.60, 5.60 to 6.60 and 5.60 to 6.60, respectively.

Regarding `N=C(N)NCCC[C@@H](C=O)NC(=O)[C@@H]1C[C@H](O)CN1C(=O)[C@@H](CO)NC(=O)OCc1ccccc1` [Compound 49, benzyloxycarbonyl-D-seryl-L-cis-4-hydroxyprolyl-argininal] (Cbz-[dS]-[cisHyp]-Arg-aldehyde), the figures for the negative-log IC50 (pIC50) at Human rt-PA (Activase), against human plasmin and on Urokinase (Abbokinase) were less than 5.60, 5.60 to 6.60 and greater than 7.00, respectively.

For `C[C@H](NC(=O)[C@@H](CO)NCCCc1ccccc1)C(=O)N[C@H](C=O)CCCNC(=N)N` [Compound 32, N-α-(3-Phenylpropyl)-D-seryl-alanyl-argininal], the results for the negative logarithm of the IC50 (pIC50) at Human rt-PA (Activase), on human plasmin and on Urokinase (Abbokinase) (setting [1]) were less than 5.60, 5.60 to 6.60 and greater than 7.00, respectively.

As for `C[C@H](NC(=O)[C@@H](CO)NC(=O)OCc1ccccc1)C(=O)N[C@H](C=O)CCCNC(=N)N` [Compound 2, Benzyloxycarbonyl-D-seryl-alanyl-argininal] (Cbz-[dS]-Ala-Arg-aldehyde), the pIC50 at Human rt-PA (Activase) was 5.60 to 6.60; on human plasmin it was 5.60 to 6.60; at Urokinase (Abbokinase), greater than 7.00.

Regarding `CC(C)OC(=O)N[C@H](CO)C(=O)N[C@@H](C)C(=O)N[C@H](C=O)CCCNC(=N)N` [Compound 40, isopropyloxycarbonyl-D-seryl-alanyl-argininal], the pIC50 at Human rt-PA (Activase) was less than 5.60; against human plasmin it was less than 5.60; on Urokinase (Abbokinase), greater than 7.00.

On to `N=C(N)NCCC[C@@H](C=O)NC(=O)[C@H](CO)NC(=O)[C@@H](CO)NC(=O)OCc1ccccc1` [Compound 45, benzyloxycarbonyl-D-seryl-L-seryl-argininal] (Cbz-[dS]-Ser-Arg-aldehyde), for which the negative-log IC50 (pIC50) is less than 5.60 on Human rt-PA (Activase), 5.60 to 6.60 at human plasmin and 6.60 to 7.00 at Urokinase (Abbokinase).

`N=C(N)NCCC[C@@H](C=O)NC(=O)[C@@H]1C=CCN1C(=O)[C@@H](CO)NC(=O)OCc1ccccc1` [Compound 50, benzyloxycarbonyl-D-seryl-L-3,4-dehydroprolyl-argininal] (Cbz-[dS]-[ΔPro]-Arg-aldehyde): the negative-log IC50 (pIC50) on Human rt-PA (Activase) was less than 5.60; at human plasmin, 6.60 to 7.00; on Urokinase (Abbokinase), greater than 7.00.

Take `N=C(N)NCCC[C@@H](C=O)NC(=O)[C@@H]1CCCN1C(=O)[C@@H](CCO)NC(=O)OCc1ccccc1` [Compound 27, benzyloxycarbonyl-D-homoseryl-prolyl-argininal] (Cbz-[d(hSer)]-Pro-Arg-aldehyde): the pIC50 was less than 5.60 at Human rt-PA (Activase), greater than 7.00 against human plasmin and 6.60 to 7.00 against Urokinase (Abbokinase).

Turning to `C[C@H](NC(=O)[C@@H](CO)NS(=O)(=O)CCCc1ccccc1)C(=O)N[C@H](C=O)CCCNC(=N)N` [Compound 48, 3-phenylpropylsulfonyl-D-seryl-alanyl-argininal], the negative logarithm of the IC50 (pIC50) was less than 5.60 on Human rt-PA (Activase), 5.60 to 6.60 at human plasmin and greater than 7.00 against Urokinase (Abbokinase).

In the case of `C=CC[C@H](NC(=O)[C@@H](CO)NC(=O)OCc1ccccc1)C(=O)N[C@H](C=O)CCCNC(=N)N` [Compound 52, benzyloxycarbonyl-D-seryl-L-allylglycyl-argininal] (Cbz-[dS]-[AllylGly]-Arg-aldehyde), the figures for the negative-log IC50 (pIC50) at Human rt-PA (Activase), on human plasmin and on Urokinase (Abbokinase) were less than 5.60, 5.60 to 6.60 and 6.60 to 7.00, respectively.

`C[C@H](NC(=O)[C@@H](CO)NC(=O)CCC1CCCCC1)C(=O)N[C@H](C=O)CCCNC(=N)N` [Compound 35, 3-cyclohexylpropionyl-D-seryl-alanyl-argininal]: the negative-log IC50 (pIC50) at Human rt-PA (Activase) was less than 5.60; against human plasmin, less than 5.60; against Urokinase (Abbokinase), 5.60 to 6.60.

With “benzyloxycarbonyl-D-seryl-L-β-cyanoalanine-argininal [Compound 46]”, the pIC50 at Human rt-PA (Activase) was less than 5.60; against human plasmin it was 5.60 to 6.60; at Urokinase (Abbokinase) (setting [1]), greater than 7.00.

Consider `C[C@H](NC(=O)[C@@H](CO)NC(=O)NCC1CCCCC1)C(=O)N[C@H](C=O)CCCNC(=N)N` [Compound 37, cyclohexylmethylazacarbonyl-D-seryl-alanyl-argininal], for which the pIC50 on Human rt-PA (Activase) was less than 5.60; against human plasmin, less than 5.60; at Urokinase (Abbokinase) it was 6.60 to 7.00.

Consider `C[C@H](NC(=O)[C@@H](CO)NC(=O)OCC1CCCCC1)C(=O)N[C@H](C=O)CCCNC(=N)N` [Compound 36, cyclohexylmethyloxycarbonyl-D-seryl-alanyl-argininal], for which the pIC50 is less than 5.60 at Human rt-PA (Activase), 5.60 to 6.60 on human plasmin and greater than 7.00 at Urokinase (Abbokinase).
